Patent US20060293307A1, “Oxazolidinone derivatives as antimicrobials” (priority 2002, published 2006)
In brackets after ≈: the same amount, converted by molar mass.

How the values were obtained:
[1] = tested on: S. aureus ATCC29213; assay: MIC, agar incorporation method; format: cell-based, Staphylococcus aureus; conditions: S. No. 2, S. aureus ATCC29213
[2] = tested on: S. aureus SG 511; assay: MIC, agar incorporation method; format: cell-based, Staphylococcus aureus; conditions: S. No. 3, S. aureus SG 511
[3] = tested on: S. aureus (MRSA) ST450; assay: MIC, agar incorporation method; format: cell-based, Staphylococcus aureus; conditions: S. No. 6, S. aureus (MRSA) ST450
[4] = tested on: (MRSA) 562; assay: MIC, agar incorporation method; format: cell-based, Staphylococcus aureus; conditions: S. No. 8, (MRSA) 562
[5] = tested on: S. aureus (Smith 49951); assay: MIC, agar incorporation method; format: cell-based, Staphylococcus aureus; conditions: S. No. 9, S. aureus (Smith 49951)
[6] = tested on: S. epidermidis (MRSE) 23760; assay: MIC, agar incorporation method; format: cell-based, Staphylococcus epidermidis; conditions: S. No. 11, S. epidermidis (MRSE) 23760
[7] = tested on: S. epidermidis (MRSE)32965; assay: MIC, agar incorporation method; format: cell-based, Staphylococcus epidermidis; conditions: S. No. 13, S. epidermidis (MRSE)32965
[8] = tested on: E. faecalis SP 346 (VRE); assay: MIC, agar incorporation method; format: cell-based; conditions: S. No. 20, E. faecalis SP 346 (VRE)
[9] = tested on: Salmonella 205; assay: MIC, agar incorporation method; format: cell-based; conditions: S. No. 26, Salmonella 205
Procedure: The compounds of the invention display antibacterial activity when tested by the agar incorporation method. The following minimum inhibitory concentrations (μg/ml) were obtained for representative compounds of the invention which are given below in the following tables.
Briefly, the compounds were dissolved in DMSO and doubling dilution of the compounds were incorporated into Meer Hilton agar before solidification. Inoculum was prepared by suspending 4 to 5 colonies into 5 ml of normal saline solution and adjusting the turbidity to 0.5 Macfarland turbidity standard tables (1.5×10^8 CFU/ml), after appropriate dilutions, 10^4 CFU/spot was transfered into the surface of dried plate and incubated for 18 hours (24 hours for MRSN studies). The concentration showing no growth of the inoculated culture was recorded as the MIC. Appropriate ATCC standard strains were simultaneously tested and result recorded only when the MIC's against standard antibiotics were within the acceptable range.

[10] = tested on: S. pneumoniae AB-3; assay: MIC, agar incorporation method; format: cell-based, Streptococcus pneumoniae; conditions: S. No. 32, S. pneumoniae AB-3
[11] = tested on: S. pneumoniae AB 31; assay: MIC, agar incorporation method; format: cell-based, Streptococcus pneumoniae; conditions: S. No. 36, S. pneumoniae AB 31
[12] = tested on: S. pneumoniae 217; assay: MIC, agar incorporation method; format: cell-based, Streptococcus pneumoniae; conditions: S. No. 38, S. pneumoniae 217
[13] = tested on: S. pneumoniae CS 1687; assay: MIC, agar incorporation method; format: cell-based, Streptococcus pneumoniae; conditions: S. No. 44, S. pneumoniae CS 1687
[14] = tested on: S. pneumoniae ATCC 49619; assay: MIC, agar incorporation method; format: cell-based, Streptococcus pneumoniae; conditions: S. No. 48, S. pneumoniae ATCC 49619
[15] = tested on: S. pneumoniae AB 34; assay: MIC, agar incorporation method; format: cell-based, Streptococcus pneumoniae; conditions: S. No. 49, S. pneumoniae AB 34
[16] = tested on: S. pneumoniae 1251; assay: MIC, agar incorporation method; format: cell-based, Streptococcus pneumoniae; conditions: S. No. 54, S. pneumoniae 1251
[17] = tested on: S pneumoniae 1294.; assay: MIC, agar incorporation method; format: cell-based, Streptococcus pneumoniae; conditions: S. No. 55, S pneumoniae 1294.
[18] = tested on: S. pneumoniae 1256; assay: MIC, agar incorporation method; format: cell-based, Streptococcus pneumoniae; conditions: S. No. 56, S. pneumoniae 1256
[19] = tested on: S. pneumoniae 1275; assay: MIC, agar incorporation method; format: cell-based, Streptococcus pneumoniae; conditions: S. No. 57, S. pneumoniae 1275
[20] = tested on: Moraxella cata. M2; assay: MIC, agar incorporation method; format: cell-based; conditions: S. No. 59, Moraxella cata. M2
[21] = tested on: H. influenzae 35056; assay: MIC against Haemophilus strains; format: cell-based; conditions: s. No. 1, H. influenzae 35056
[22] = tested on: H. influenzae 1745; assay: MIC against Haemophilus strains; format: cell-based; conditions: s. No. 9, H. influenzae 1745

Compound	MIC [1]	MIC [2]	MIC [3]	MIC [4]	MIC [5]	MIC [6]	MIC [7]	MIC [8]	MIC [9]	MIC [10]	MIC [11]	MIC [12]	MIC [13]	MIC [14]	MIC [15]	MIC [16]	MIC [17]	MIC [18]	MIC [19]	MIC [20]	other results
CC(=O)NC[C@H]1CN(c2ccc(N3CCN(c4cc(C(OC(C)=O)OC(C)=O)sc4[N+](=O)[O-])CC3)c(F)c2)C(=O)O1 [Compound No. 5, (S)—N-[[3-[3-Fluoro-4-[4-{3-thienyl(2-nitro)-5-acetyloxy}methylacetate]-1-piperazinyl]phenyl]-2-oxo-5-oxazolidinyl]acetamide]	0.25 µg/mL (≈ 0.421 µM)	0.25 µg/mL (≈ 0.421 µM)	1 µg/mL (≈ 1.68 µM)	0.25 µg/mL (≈ 0.421 µM)	0.25 µg/mL (≈ 0.421 µM)	<0.06 µg/mL	<0.06 µg/mL	2 µg/mL (≈ 3.37 µM)	>8 µg/mL	0.5 µg/mL (≈ 0.842 µM)	0.5 µg/mL (≈ 0.842 µM)	0.5 µg/mL (≈ 0.842 µM)	0.5 µg/mL (≈ 0.842 µM)	0.5 µg/mL (≈ 0.842 µM)	0.5 µg/mL (≈ 0.842 µM)	0.5 µg/mL (≈ 0.842 µM)	0.5 µg/mL (≈ 0.842 µM)	0.25 µg/mL (≈ 0.421 µM)	0.25 µg/mL (≈ 0.421 µM)	2 µg/mL (≈ 3.37 µM)	MIC [21]: >16 µg/mL; MIC [22]: 16 µg/mL (≈ 27 µM)
C[C@H](Cl)C(=O)NCC1CN(c2ccc(N3CCN(c4ccc([N+](=O)[O-])s4)CC3)c(F)c2)C(=O)O1 (stereo partly drawn) [Compound No. 7, (S)—N-[[3-[3-Fluoro-4-[N-1-{4-(5-nitro-2-thienyl)piperazinyl}]-phenyl]-2-oxo-5-oxazolidinyl]-methyl]-2-chloro-propionamide]	>8 µg/mL	>8 µg/mL	>8 µg/mL	>8 µg/mL	>8 µg/mL	4 µg/mL (≈ 7.81 µM)	2 µg/mL (≈ 3.91 µM)	>8 µg/mL	>8 µg/mL	0.5 µg/mL (≈ 0.977 µM)	1 µg/mL (≈ 1.95 µM)	1 µg/mL (≈ 1.95 µM)	2 µg/mL (≈ 3.91 µM)	0.5 µg/mL (≈ 0.977 µM)	4 µg/mL (≈ 7.81 µM)	1 µg/mL (≈ 1.95 µM)	2 µg/mL (≈ 3.91 µM)	0.25 µg/mL (≈ 0.488 µM)	0.25 µg/mL (≈ 0.488 µM)	>8 µg/mL	MIC [21]: >16 µg/mL; MIC [22]: >16 µg/mL
(S)—N-[[3-[-3-Fluoro-4-[(5-nitro-2-thienyl)-3-methyl-1-piperazinyl]phenyl]-2-oxo-5-oxazolidinyl]methyl]acetamide [Compound No. 10]	1 µg/mL	0.5 µg/mL	1 µg/mL	1 µg/mL	1 µg/mL	0.5 µg/mL	0.5 µg/mL	1 µg/mL	>8 µg/mL	0.5 µg/mL	0.5 µg/mL	0.5 µg/mL	0.5 µg/mL	0.5 µg/mL	1 µg/mL	0.5 µg/mL	0.5 µg/mL	0.25 µg/mL	0.25 µg/mL	2 µg/mL	MIC [21]: >16 µg/mL; MIC [22]: >16 µg/mL
